Laboratory results taken from patent publication US8466176B2 (priority 2008, dated 2013).

Tests used:
[1] = logP(HCOOH) reported with HPLC/MS
Phytophthora infestans = test: whole plant or invertebrate; format: in vivo; settings: in Solanum lycopersicum, 168 h, read-out: efficacy
[2] = Measurement of logP values according EEC directive 79/831 Annex V.A8 by HPLC on reversed phase columns; format: physicochemical
[3] = logP by HPLC on reversed phase columns, method [a], pH 2.3 with 0.1% phosphoric acid and acetonitrile; format: physicochemical; settings: method [a]: pH 2.3, 0.1% phosphoric acid and acetonitrile as eluent, EEC directive 79/831 Annex V.A8, reversed phase HPLC; for chromatographic logP: reversed phase HPLC columns, read-out: log p
[4] = HCOOH (formic acid), logP(HCOOH), HPLC/MS
[5] = reversed phase HPLC column, pH 2.7, log p, method [b]: LC-MS at pH 2.7, 0.1% formic acid in water and acetonitrile, linear gradient 10% to 95% acetonitrile
[6] = method [a]: pH 2.3 with 0.1% phosphoric acid and acetonitrile as eluent
[7] = no method mark printed in the cell

Structure (SMILES): Cn1nnnc1C(=NOCc1nc(C#CC2CC2)sc1Cl)c1ccccc1 [Example 114, N-{[5-chloro-2-(cyclopropylethynyl)-1,3-thiazol-4-yl]methoxy}-1-(1-methyl-1H-tetrazol-5-yl)-1-phenylmethanimine]
- chromatographic logP [1, 4]: 4.59
- chromatographic logP [1, 5]: 4.59
- pest or weed control at 500 ppm (Phytophthora infestans): ≥ 70%

Structure (SMILES): Cn1nnnc1C(=NOCc1cccc(NCC2CCCC2)n1)c1ccccc1 [Example 288]
- log p [2, 6]: 2.3^[a]

Structure (SMILES): CCCCC1CC(c2cccc(CON=C(c3ccccc3)c3nnnn3C)n2)=NO1 (stereo not shown) [Example 276]
- log p [2, 6]: 4.26^[a]

Structure (SMILES): Cn1nnnc1C(=NOCc1csc(/C=C/C2CC2)n1)c1ccccc1 [Example 277]
- log p [2, 6]: 3.58^[a]

Structure (SMILES): Cn1nnnc1C(=NOCc1cccc(NCCC2CCCCC2)n1)c1ccccc1 [Example 80, N-(2-cyclohexylethyl)-6-[({[(1-methyl-1H-tetrazol-5-yl)(phenyl)methylene]amino}oxy)methyl]pyridin-2-amine]
- pest or weed control at 500 ppm (Phytophthora infestans): ≥ 70%

Structure (SMILES): Cn1nnnc1C(=NOCc1cccc(C#Cc2ccccc2)n1)c1ccccc1 [Example 25]
- log p [3]: 4.04^[a]

Structure (SMILES): Cn1nnnc1C(=NOCc1cccc(/C=C/C2CCCCC2)n1)c1ccccc1 [Example 93, N-({6-[(E)-2-cyclohexylvinyl]pyridin-2-yl}methoxy)-1-(1-methyl-1H-tetrazol-5-yl)-1-phenylmethanimine]
- chromatographic logP ([1]; HPLC, logP(HCOOH), HPLC/MS): 5.05
- chromatographic logP [3]: 5.05
- pest or weed control at 500 ppm (Phytophthora infestans): ≥ 70%

Structure (SMILES): Cn1nnnc1C(=NOCc1cccc(C#CC(C)(C)C)n1)c1ccccc1 [Example 22]
- log p [3]: 4.19^[a]

Structure (SMILES): CCCCC#Cc1cccc(CON=C(c2ccccc2)c2nnnn2C)n1 [Example 23, N-{[6-(hex-1-yn-1-yl)pyridin-2-yl]methoxy}-1-(1-methyl-1H-tetrazol-5-yl)-1-phenylmethanimine]
- pest or weed control at 500 ppm (Phytophthora infestans): ≥ 70%

Structure (SMILES): Cn1nnnc1C(=NOCc1csc(C#CC2CCCCC2)n1)c1ccccc1 [Example 68]
- log p [3]: 4.89^[a]

Structure (SMILES): CC(C)CC#Cc1nc(CON=C(c2ccccc2)c2nnnn2C)cs1 [Example 61]
- log p [3]: 4.34^[a]

Structure (SMILES): COc1cccc(/C=C/c2cccc(CON=C(c3ccccc3)c3nnnn3C)n2)c1 [Example 87]
- log p [3]: 4.14^[a]

Structure (SMILES): Cn1nnnc1C(=NOCc1cccc(-c2cccc(Cl)c2)n1)c1ccccc1 [Example 47]
- log p [3]: 4.49^[a]

Structure (SMILES): CCCCC#Cc1ccc(F)c(CON=C(c2ccccc2)c2nnnn2C)n1 [Example 99, N-{[3-fluoro-6-(hex-1-yn-1-yl)pyridin-2-yl]methoxy}-1-(1-methyl-1H-tetrazol-5-yl)-1-phenylmethanimine]
- chromatographic logP ([1]; logP(HCOOH), HPLC/MS): 4.41
- chromatographic logP [1, 5]: 4.41
- pest or weed control at 500 ppm (Phytophthora infestans): ≥ 70%

Structure (SMILES): Cn1nnnc1C(=NOCc1cccc(C#CC2CCCCC2)n1)c1ccccc1 [Example 30]
- log p [3]: 4.77^[a]

Structure (SMILES): CC(C)[Si](C#Cc1cccc(CON=C(c2ccccc2)c2nnnn2C)n1)(C(C)C)C(C)C [Example 28]
- log p [3]: 6.83^[a]

Structure (SMILES): CCCCCC/C=C/c1nc(CON=C(c2ccccc2)c2nnnn2C)cs1 [Example 82]
- log p [3]: 5.53^[a]

Structure (SMILES): Cn1nnnc1C(=NOCc1csc(/C=C/CC2CCCC2)n1)c1ccccc1 [Example 279]
- log p [2, 6]: 5.14^[a]

Structure (SMILES): Cn1nnnc1C(=NOCc1nc(Cl)sc1Cl)c1ccccc1 [Example 113, N-[(2,5-dichloro-1,3-thiazol-4-yl)methoxy]-1-(1-methyl-1H-tetrazol-5-yl)-1-phenylmethanimine]
- chromatographic logP [1, 4]: 3.67
- chromatographic logP [1, 5]: 3.67
- pest or weed control at 500 ppm (Phytophthora infestans): ≥ 70%

Structure (SMILES): CCCCCCN(C)c1nc(CON=C(c2ccccc2)c2nnnn2C)cs1 [Example 50]
- log p [3]: 4.56^[a]

Structure (SMILES): Cn1nnnc1C(=NOCc1cccc(-c2ccc(-c3ccccc3)cc2)n1)c1ccccc1 [Example 35]
- log p [3]: 5.05^[a]

Structure (SMILES): CN(CCc1ccccc1)c1nc(CON=C(c2ccccc2)c2nnnn2C)cs1 [Example 37]
- log p [3]: 3.96^[a]

Structure (SMILES): Cn1nnnc1C(=NOCc1cccc(-c2cccc(CON=C(c3ccccc3)c3nnnn3C)n2)n1)c1ccccc1 [Example 21]
- log p [3]: 4.36^[a]

Structure (SMILES): Cn1nnnc1C(=NOCc1csc(/C=C/Cc2ccccc2)n1)c1ccccc1 [Example 88]
- log p [3]: 4.29^[a]

Structure (SMILES): Cn1nnnc1C(=NOCc1csc(C#CC2CC2)n1)c1ccccc1 [Example 70, N-{[2-(cyclopropylethynyl)-1,3-thiazol-4-yl]methoxy}-1-(1-methyl-1H-tetrazol-5-yl)-1-phenylmethanimine]
- chromatographic logP [1, 4]: 3.58
- chromatographic logP [3]: 3.58
- pest or weed control at 500 ppm (Phytophthora infestans): ≥ 70%

Structure (SMILES): Cn1nnnc1C(=NOCc1csc(C#CCC2CCCC2)n1)c1ccccc1 [Example 66]
- log p [3]: 4.92^[a]

Structure (SMILES): Cn1nnnc1C(=NOCc1cccc(Br)n1)c1ccccc1 (single isomer, unassigned) [Example 307]
- log p [2, 7]: 3.00

Structure (SMILES): CCCC(C)C#Cc1nc(CON=C(c2ccccc2)c2nnnn2C)cs1 (stereo not shown) [Example 64]
- log p [3]: 4.78^[a]

Structure (SMILES): CCCCOc1ccc(-c2cccc(CON=C(c3ccccc3)c3nnnn3C)n2)cc1 [Example 39]
- log p [3]: 5.2^[a]

Structure (SMILES): CCCC#Cc1cccc(CON=C(c2ccccc2)c2nnnn2C)n1 [Example 27]
- log p [3]: 3.83^[a]

Structure (SMILES): CCCCCSc1cccc(CON=C(c2ccccc2)c2nnnn2C)n1 [Example 74, 1-(1-methyl-1H-tetrazol-5-yl)-N-{[6-(pentylsulfanyl)pyridin-2-yl]methoxy}-1-phenylmethanimine]
- chromatographic logP ([1]; HPLC/MS, logP(HCOOH)): 5.97
- chromatographic logP [3]: 5.14

Structure (SMILES): CC(C)CCC#Cc1nc(CON=C(c2ccccc2)c2nnnn2C)cs1 [Example 65]
- log p [3]: 4.75^[a]

Structure (SMILES): Cn1nnnc1C(=NOCc1cccc(C#CC[Si](C)(C)C)n1)c1ccccc1 [Example 26]
- log p [3]: 4.61^[a]

Structure (SMILES): Cn1nnnc1C(=NOCc1cccc(C2OCCO2)n1)c1ccccc1 [Example 160, N-{[6-(1,3-dioxolan-2-yl)pyridin-2-yl]methoxy}-1-(1-methyl-1H-tetrazol-5-yl)-1-phenylmethanimine]
- chromatographic logP ([1]; HPLC, logP(HCOOH), HPLC/MS): 2.47
- chromatographic logP ([1]; reversed phase HPLC column, pH 7.8, log p, method [c]: LC-MS, pH 7.8 with 0.001 molar ammonium hydrogen carbonate solution in water, linear gradient 10% to 95% acetonitrile): 2.47
- pest or weed control at 500 ppm (Phytophthora infestans): ≥ 70%

Structure (SMILES): COCCCN(C)c1nc(CON=C(c2ccccc2)c2nnnn2C)cs1 [Example 46]
- log p [3]: 2.59^[a]

Structure (SMILES): Cn1nnnc1C(=NOCc1cccc(NCC2CCCCC2)n1)c1ccccc1 [Example 289]
- log p [2, 6]: 2.43^[a]

Structure (SMILES): Cn1nnnc1C(=NOCc1cccc(Br)n1)c1ccccc1 (single isomer, unassigned) [Example 306]
- log p [2, 7]: 3.19

Structure (SMILES): Cn1nnnc1C(=NOCc1cccc(-c2ccc(C(F)(F)F)cc2)n1)c1ccccc1 [Example 34]
- log p [3]: 4.62^[a]

Structure (SMILES): Cn1nnnc1C(=NOCc1cccc(-c2ccc(OC(F)(F)F)cc2)n1)c1ccccc1 [Example 40]
- log p [3]: 4.73^[a]

Structure (SMILES): Cn1nnnc1C(=NOCc1cccc(/C=C/c2cc(F)cc(F)c2)n1)c1ccccc1 [Example 95]
- log p [3]: 4.49^[a]

Structure (SMILES): C#Cc1cccc(CON=C(c2ccccc2)c2nnnn2C)n1 [Example 19]
- log p ([1]; method [b]: LC-MS at pH 2.7, 0.1% formic acid in water and acetonitrile, linear gradient 10% to 95% acetonitrile): 2.7^[b]
- log p [3]: 2.69^[a];

Structure (SMILES): CCCCCN(C)c1nc(CON=C(c2ccccc2)c2nnnn2C)cs1 [Example 51]
- log p [3]: 4.01^[a]

Structure (SMILES): Cn1nnnc1C(=NOCc1csc(Br)n1)c1ccccc1 [Example 32, N-[(2-bromo-1,3-thiazol-4-yl)methoxy]-1-(1-methyl-1H-tetrazol-5-yl)-1-phenyl-methanimine]
- chromatographic logP ([1]; logP(HCOOH), HPLC/MS): 3.11
- pest or weed control at 500 ppm (Phytophthora infestans): ≥ 70%

Structure (SMILES): Cn1nnnc1C(=NOCc1cccc(C(F)(F)C(F)(F)C(F)(F)C(F)(F)C(F)(F)C(F)(F)C(F)(F)F)n1)c1ccccc1 [Example 73]
- log p [3]: 5.86^[a]

Structure (SMILES): COc1ccc(CON=C(c2ccccc2)c2nnnn2C)nc1C#CC1CC1 [Example 126, N-{[6-(cyclopropylethynyl)-5-methoxypyridin-2-yl]methoxy}-1-(1-methyl-1H-tetrazol-5-yl)-1-phenylmethanimine]
- chromatographic logP [1, 4]: 3.23
- chromatographic logP [1, 5]: 3.23
- pest or weed control at 500 ppm (Phytophthora infestans): ≥ 70%

Structure (SMILES): CCCCC/C=C/c1cccc(CON=C(c2ccccc2)c2nnnn2C)n1 [Example 90]
- log p [3]: 5^[a]

Structure (SMILES): Cn1nnnc1C(=NOCc1csc(N2CCCCC2)n1)c1ccccc1 [Example 49]
- log p [3]: 3.39^[a]

Structure (SMILES): CCCCCCOc1cccc(CON=C(c2ccccc2)c2nnnn2C)n1 [Example 20, N-{[6-(hexyloxy)pyridin-2-yl]methoxy}-1-(1-methyl-1H-tetrazol-5-yl)-1-phenylmethanimine]
- chromatographic logP ([1]; logP(HCOOH), HPLC/MS): 5.39
- chromatographic logP [3]: 5.39

Structure (SMILES): CN(Cc1ccccc1)c1nc(CON=C(c2ccccc2)c2nnnn2C)cs1 [Example 48]
- log p [3]: 3.89^[a]

Structure (SMILES): CCCCOc1cccc(-c2cccc(CON=C(c3ccccc3)c3nnnn3C)n2)c1 [Example 44]
- log p [3]: 5.2^[a]

Structure (SMILES): COc1cccc(-c2cccc(CON=C(c3ccccc3)c3nnnn3C)n2)c1 [Example 33]
- log p [3]: 3.89^[a]

Structure (SMILES): CCCCCC/C=C/c1cccc(CON=C(c2ccccc2)c2nnnn2C)n1 [Example 92]
- log p [3]: 5.5^[a]

Structure (SMILES): Cn1nnnc1C(=NOCc1cccc(-c2cc(Cl)cc(Cl)c2)n1)c1ccccc1 [Example 41]
- log p [3]: 5.23^[a]

Structure (SMILES): Cn1nnnc1C(=NOCc1csc(/C=C/C2CCCCC2)n1)c1ccccc1 [Example 89]
- log p [3]: 5.14^[a]

Structure (SMILES): Cn1nnnc1C(=NOCc1cccc(-c2ccc(OCc3ccccc3)cc2)n1)c1ccccc1 [Example 36]
- log p [3]: 4.89^[a]
